We go through one compound from patent publication US20200247812A1 (Integral Biosciences Private Limited, priority 2018, published 2020).

In one assay the test system is Panc-1. Description: Cell viability assay (resazurin), Panc-1. Format: cell-based. To be noted: Homo sapiens, 72-144 hr. The protocol:
Different cell lines such as pancreatic, (MIA PaCa-2; ATCC®CRL-1420™ & and Panc-1; CRL-1469™), liver carcinoma (HepG2; ATCC® HB-8065™), lung epithelial carcinoma (A549; ATCC® CCL-185™) and others were seeded in their respective medium (DMEM, Cat #10569044, MEM, Cat #41090036; RPMI, Cat #22400089; all with 10% FBS, Gibco, ThermoFisher) at a cell count of 3000 cells per 100 μl per well in a 96 well edge plate (167425; ThermoFisher). Cells were allowed to grow at 37° C. for 24 hr in 5% CO2 (culture conditions) in a Nuaire incubator (humidified). Serially diluted compounds (100 μl) were added to the culture plate 24 hr later and the cultures were further incubated in culture conditions for specified time depending on doubling time of specific cell line (ranging from 72-144 hr). […] Fluorescence was then measured using a multimodal plate reader (Biotek Synergy Neo) at an excitation wavelength of 535 nm and emission wavelength of 590 nm to obtain relative fluorescence units. Data analysis was done by subtracting the background fluorescence (only medium blank) value from each reading and then normalizing with the vehicle control (DMSO treated cells) to obtain percent survival/proliferation. […]

Another assay deals with 22Rv1. The assay can be described thus: Cell viability assay (resazurin), 22Rv1. Particulars: Homo sapiens, 72-144 hr. The class given is cell-based. The protocol: (§1) Different cell lines such as pancreatic, (MIA PaCa-2; ATCC®CRL-1420™ & and Panc-1; CRL-1469™), liver carcinoma (HepG2; ATCC® HB-8065™), lung epithelial carcinoma (A549; ATCC® CCL-185™) and others were seeded in their respective medium (DMEM, Cat #10569044, MEM, Cat #41090036; RPMI, Cat #22400089; all with 10% FBS, Gibco, ThermoFisher) at a cell count of 3000 cells per 100 μl per well in a 96 well edge plate (167425; ThermoFisher). Cells were allowed to grow at 37° C. for 24 hr in 5% CO2 (culture conditions) in a Nuaire incubator (humidified). Serially diluted compounds (100 μl) were added to the culture plate 24 hr later and the cultures were further incubated in culture conditions for specified time depending on doubling time of specific cell line (ranging from 72-144 hr). Experiment was terminated at the completion of incubation time with the drug by replacing the medium with 100 μl of 1 mM of resazurin (R7017; Sigma) prepared in respective culture medium and the plates were further incubated in culture conditions for 4 hr. Fluorescence was then measured using a multimodal plate reader (Biotek Synergy Neo) at an excitation wavelength of 535 nm and emission wavelength of 590 nm to obtain relative fluorescence units. Data analysis was done by subtracting the background fluorescence (only medium blank) value from each reading and then normalizing with the vehicle control (DMSO treated cells) to obtain percent survival/proliferation. Percent survival at different doses was used to calculate IC50 by fitting the curve to the “four-parameter variable slope logistic model” using Prism Graph Pad.
For orientation: Alamar Blue is a resazurin reagent that responds to reducing activity.

In another assay the target is T1, ALK 5 (Homo sapiens, UniProt P36897).
T1 sequence (P36897 34-503): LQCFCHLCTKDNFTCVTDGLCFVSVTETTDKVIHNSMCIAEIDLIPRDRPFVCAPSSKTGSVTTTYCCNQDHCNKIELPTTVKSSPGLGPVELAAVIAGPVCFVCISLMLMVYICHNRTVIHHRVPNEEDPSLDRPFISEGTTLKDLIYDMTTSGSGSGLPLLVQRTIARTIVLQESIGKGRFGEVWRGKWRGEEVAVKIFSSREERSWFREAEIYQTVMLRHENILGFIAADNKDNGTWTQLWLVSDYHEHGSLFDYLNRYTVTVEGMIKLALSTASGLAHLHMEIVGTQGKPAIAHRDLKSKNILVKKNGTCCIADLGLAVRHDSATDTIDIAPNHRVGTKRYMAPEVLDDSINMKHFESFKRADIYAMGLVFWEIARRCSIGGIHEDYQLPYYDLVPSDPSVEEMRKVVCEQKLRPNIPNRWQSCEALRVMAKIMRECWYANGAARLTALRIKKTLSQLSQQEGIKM
The assay can be described thus: In vitro kinase assay (ALK5 IC50, LanthaScreen Terbium labeled TR-FRET). To be noted: TGF-β kinase 6 nM, ATP 10 μM, read-out: Enzyme Activity ALK 5 IC50. Format: biochemical. The essentials:
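LanthaScreen Tb TR-FRET: ALK5 (6 nM) preincubated 10 min with 3-fold diluted compounds, then 10 μM ATP and 200 nM fluorescent PolyGT substrate added for 1 h at room temperature. Stopped with EDTA/Tb antibody; 520/495 nm emission read. IC50 from four-parameter fit versus DMSO and no-enzyme controls.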
In general terms: Time-resolved FRET reads energy transfer from a long-lived donor to a nearby acceptor.

The test system of the next assay is MDA_MB-231. Description: Cell viability assay (resazurin), MDA_MB-231. Format: cell-based. To be noted: Homo sapiens, MDA-MB-231, 72-144 hr. The protocol:
as §1

Another assay concerns MCF7. The assay can be described thus: Cell viability assay (resazurin), MCF7. Format: cell-based. To be noted: Homo sapiens, 72-144 hr. How it is done:
as §1

In another assay the test system is HepG2. Description: Cell viability assay (resazurin), HepG2. To be noted: Homo sapiens, 72-144 hr. Format: cell-based. The protocol:
as §1

Another assay relates to human PBMC's. The assay can be described thus: Viability in CD3e/CD28 activated human PBMC's (resazurin). To be noted: 72 hr. Format: cell-based. How it is done: IC50 values of compounds for determining viability in CD3e/CD28 activated human PBMC's (hPBMC-34033, Cat # CC-2702; Lonza) cultured in LGM3 medium, Cat # CC #3211; Lonza). Human PBMC's (0.25×10^6 cells/well) were activated with Anti-human CD3e (0.5 μg/ml, coated overnight at 4° C.; Cat #16-0037-81, eBioscience) and then incubated with serial dilutions of compounds (3 fold, 8 point dose response starting at 30 μM) for 30 min at 37° C., 5% CO2 in an incubator (cell culture conditions) prior to treating them with Anti-human CD28 (0.25 μg/ml soluble; Cat #16-0289-81, eBiosciences). Human PBMC's were further incubated under cell culture conditions for 72 hr following which experiment was terminated by replacing the medium with 100 μl of 1 mM of resazurin (R7017; Sigma) prepared in culture medium and the plates were further incubated in culture conditions for 4 hr. Fluorescence was then measured using a multimodal plate reader (Biotek Synergy Neo) at an excitation wavelength of 535 nm and emission wavelength of 590 nm to obtain relative fluorescence units. Data analysis was done by subtracting the background fluorescence (only medium blank) value from each reading and then normalizing with the vehicle control (DMSO treated cells) to obtain percent survival/proliferation. Percent survival at different doses was used to calculate IC50 by fitting the curve to the “four-parameter variable slope logistic model” using Prism Graph Pad.

Another assay deals with A427. The assay can be described thus: Cell viability assay (resazurin), A427. Format: cell-based. Particulars: Homo sapiens, A-427, 72-144 hr. How it is done:
as §1

A further assay has as its system A549. Description: Cell viability assay (resazurin), A549. The class given is cell-based. To be noted: Homo sapiens, 72-144 hr. How it is done:
as §1

By IC50 is commonly meant the midpoint of a concentration-inhibition curve. In the case of `CC(C)c1[nH]c(=O)c(-c2cc(Cl)ccc2F)cc1Nc1ccncc1C(N)=O` [Compound 1.43, 4-((5-(5-chloro-2-fluorophenyl)-2-isopropyl-6-oxo-1,6-dihydropyridin-3-yl)amino)nicotinamide], the IC50 in the assay with Panc-1 was above 30 µM; in the assay on 22Rv1, above 30 µM; on ALK 5 it was at most 0.5 µM; in the assay on MDA_MB-231, above 30 µM; with MCF7, above 10 µM; with HepG2, above 30 µM. Moreover, the IC50 with human PBMC's, with A427 and in the assay on A549 was above 30 µM in each case.
